Results reported in patent US6787149B1 (El Khoury and Stein Ltd., priority 2000, dated 2004).

What was measured:
[1] = system: intraarticular opioid receptors; assay: Intraarticular injection after arthroscopic surgery of the knee; assay type: in vivo, human; details: injected in the knee after arthroscopic surgery
[2] = system: patients who had undergone failed back operations; details: 1-3 mg on the back, ultrasound, massage, heat, Aquaphor vehicle; cited from earlier work
[3] = system: patients who had burns from radiation therapy
[4] = system: children undergoing tonsillectomy; assay: Analgesia for postsurgical pain after tonsillectomy, morphine spray on tonsil beds; assay type: in vivo, human; details: spray in saline on the tonsil beds after surgery; able to swallow and eat ice cream same day
From the text: The morphine spray in saline was used on the tonsil beds after surgery in children undergoing tonsillectomy.

[5] = system: patients who had acute shingles; assay: Analgesia for shingles, morphine spray; assay type: in vivo, human
From the text: Other patients who were helped were those who had acute shingles which would produce excruciating pain on the chest.

[6] = after two or three days of using the spray

SMILES	Duration of relief after surgery [1] [h]	Pain relief [2]	Relief of pain, patients with pain on the tongue or in the mouth due to radiation burns ([3]; compared with skin radiation burn patients)	Time able to sit to do exercises after topical application ([3]; one patient with severe burns on the buttocks, could not sit before)	Relief of pain, one patient with severe burns on the buttocks (prostate cancer) ([3]; spray)	Start of relief after topical application ([3]; two or three mg diluted with saline, sprayed) [min]	Relief of pain ([3]; two or three mg diluted with saline, sprayed over inflamed area, all patients treated)	Pain after surgery [4]	Healing [5, 6]	Post-herpetic neuralgia [5, 6]	Pain of acute shingles ([5]; spray, typically three times a day)
CCCCN1CCCCC1C(=O)Nc1c(C)cccc1C (centres unmarked) [Marcaine]	≤ 12	–	–	–	–	–	–	–	–	–	–
CN1CC[C@]23c4c5ccc(O)c4O[C@H]2[C@@H](O)C=C[C@H]3[C@H]1C5.O=S(=O)(O)O [Morphine, morphine sulfate]	–	Some improvement in pain relief	same experience	an hour and a half	excellent relief of the pain	10 to 15	excellent relief of pain	no pain after surgery	healed faster	without any post-herpetic neuralgia	significantly reduced
